# Data reported in PMC8395260, “Co-Aggregation of S100A9 with DOPA and Cyclen-Based Compounds Manifested in Amyloid Fibril Thickening without Altering Rates of Self-Assembly” (International Journal of Molecular Sciences, 2021).
# Non-standard residues stand in square brackets, D forms with d. Residues, ends and D or L forms follow the SMILES beside them. Dopa = N[C@@H](Cc1ccc(O)c(O)c1)C(=O)O
# Assays:
# [1] = test system: S100A9 amyloid fibrils; experiment: AFM imaging of S100A9 fibrils, fibril height distributions; assay type: biochemical; conditions: PBS pH 7.4, 42 °C; for S100A9 fibril morphology change (AFM): molar ratio 1:1; for median height of S100A9 fibrils (AFM): molar ratio 1:10, text, S100A9 alone ca. 1.6 nm
# Protocol: In order to complement the kinetic analysis, we also monitored the S100A9 amyloid formation by AFM imaging (Figure 3). The amyloid fibrils of S100A9 alone that developed after 100 h of incubation in PBS, pH 7.4, and 42 °C were very flexible, relatively short, i.e., within 200–600 nm length, and also characterized by a narrow distribution of the heights with a median at ca. 1.6 nm in the AFM cross-sections. In the presence of all DOPA-based compounds, the fibrils of S100A9 become thicker with median heights of ca. 2.0–2.2 nm, and generally longer (Figure 3). […] At the molar ratio of S100A9 to DOPA-based compounds of 1:10, the height of fibrils became even thicker, shifting towards 2.2–2.8 nm median height and in the case of DOPA-D-H-DOPA to 3.0–3.2 nm (Figure 3), while their lengths remained about the same as at the 1:1 molar ratio.
# Figure 3 AFM imaging of S100A9 fibrils in the absence and presence of DOPA and cyclen-based compounds and the analysis of fibril height distributions. (a) Representative AFM image of S100A9 fibrils incubated alone. (b,c) Distribution of fibril heights measured in AFM cross-sections. The same distribution is shown in both columns to facilitate the comparison with the following height distributions carried out in the presence of compounds. (d,g,j,m,p) Representative AFM images of S100A9 fibrils in the presence of DOPA and cyclen-based compounds at a 1:1 molar ratio of S100A9 to compound. (e,h,k,n,q) Distributions of fibril heights measured in AFM cross-sections at the S100A9 to compound molar ratio of 1:1 and (f,i,l,o,r) at molar ratio of 1:10. Image sizes are 2.5 × 2.5 μm. The compounds and molar ratios are indicated above the figures. Samples were incubated for 50 h in PBS, pH 7.4, and 42 °C. […]
# S100A9 protein was expressed in E. coli and purified as described previously. Freshly dissolved S100A9 in PBS, pH 7.4 was used in all measurements. Lyophilized S100A9 was dissolved on ice in PBS buffer at pH 7.4. Then, S100A9 samples were filtered using a 0.22 µm spin membrane filter to remove any preformed aggregates. These solutions were directly subjected to experiments. To produce amyloids, S100A9 was incubated in PBS, pH 7.4, and 42 °C. The cyclic compounds (Figure 1) were dissolved in PBS at pH 7.4, and their stock solutions were kept frozen prior to measurements.
# AFM imaging was performed by using a BioScope Catalyst AFM (Bruker; Phoenix, AZ, USA), operating in a peak force mode in air. The scan rate was 0.51 Hz and the resolution was 512 × 512 pixels. Bruker MSLN and SLN cantilevers were used in all measurements. Imaging was also conducted using a PicoPlus AFM (Molecular Imaging), equipped with a 100 μm scanner, operating in tapping mode in air. The resonance frequency was set in 170 to 190 kHz range, scan rate of 1 Hz, and resolution of 512 × 512 pixels. […]
# [2] = ThT incubation of individual compounds (amyloid self-assembly of the compounds); assay type: physicochemical; conditions: 75 μM compound, PBS pH7.4, 42 °C, same period as S100A9 kinetics
# Protocol: Figure S1. Time dependence of Thioflavin-T fluorescence changes during its incubation with S100A9 and DOPA and Cyclen-based compounds. Thioflavin-T fluorescence in arbitrary units is shown along y-axis, time in minutes – along x-axis. Increase in Thioflavin-T fluorescence in the presence of 75 μM S100A9 reflects its amyloid self-assembly and shown in brown. By contrast, there were no increase in Thioflavin-T fluorescence upon incubation with 75 μM of corresponding compounds as […]
# green line, for DOPA-H-H-DOPA – by orange, DOPA-D-H – by chartreuse, H-E-Cyclen – by red and […]
# assembly of these compounds under the conditions of our experiments. PBS, pH7.4 and 42 °C.
# (1 picture or pasted object on this page, not shown here)
# [3] = target: T1, S100A9 (Homo sapiens, UniProt P06702); experiment: Titration of S100A9 with compounds followed by intrinsic fluorescence; conditions: intrinsic Trp 88 fluorescence, single binding site model, legend: 75 μM S100A9, PBS pH 7.4, 20 °C, method: 1 μM S100A9, 5 nM to 2.4 μM compound, 3 h room temperature, triplicates; for Kd: read-out: apparent dissociation constant Kd
# T1 construct: made in house; host or cells: E. coli
# T1 sequence (P06702 1-114): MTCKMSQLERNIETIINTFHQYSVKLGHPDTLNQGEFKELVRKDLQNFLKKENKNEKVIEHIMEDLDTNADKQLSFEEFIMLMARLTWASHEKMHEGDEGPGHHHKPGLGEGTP
# Protocol: S100A9 was titrated by each compound of interest following the changes in intrinsic fluorescence intensity, since S100A9 has one aromatic residue: Trp 88. The fitting was performed using a single binding site model to determine the apparent dissociation constant for each compound. […] A twice larger Kd was determined only for DOPA-D-H-DOPA binding.
# Figure 4 Binding of DOPA and cyclen-based compounds to native S100A9 followed by intrinsic fluorescence. (a–e) Normalized titrations of S100A9 by corresponding compounds. Each compound is indicated above corresponding figure (a–e) and their Kd in captions. Symbols indicate the experimental data points and lines the fitting with a single binding site model. 75 μM S100A9, PBS, pH 7.4, and 20 °C.
# First, 1 μM S100A9 was incubated in PBS, pH 7.4, room temperature for 3 h in the absence or presence of 5 nM to 2.4 μM of the studied compounds prior to fluorescence measurements. The final volume was kept at 400 μL for all samples. The fluorescence emission spectra were recorded using a Jasco spectrofluorometer FP 6500 (Japan), setting the excitation at 296 nm and emission at 350 nm wavelengths, respectively, with a 3 nm band-width on both the excitation and emission. The measurements were performed in triplicates. Fitting of the normalized titration curves was performed by using a single site binding model.
# [4] = target: T1, S100A9; experiment: ThT fluorescence kinetics of S100A9 amyloid formation in the presence of compounds; assay type: biochemical; conditions: for k, kinetic rate constant of S100A9 amyloid formation: 75 μM S100A9, 20 µM ThT, PBS pH 7.4, 42 °C, isodesmic polymerization fit, triplicate; for k/kS100A9: 75 μM S100A9, PBS pH 7.4, 42 °C
# Source text: The amyloid formation of S100A9 in the absence and presence of DOPA and cyclen-based compounds was monitored by ThT fluorescence and is presented in Figure 2. The amyloid formation correlates with the increase of the ThT fluorescence, and the initial parts of the fibrillation kinetic curves were fitted by using an isodesmic polymerization model to derive the kinetic rates; this model has previously been used in kinetic analysis of S100A9 amyloid self-assembly.
# Figure 2 Kinetics of S100A9 amyloid formation in the absence and presence of DOPA and cyclen-based compounds monitored by ThT fluorescence. (a) Amyloid kinetics monitored at the ratio of S100A9 to corresponding compound of 1:1 and (b) 1:10, respectively. Symbols indicating the experimental data points for S100A9 alone or with respective compounds are shown in the caption and the corresponding lines indicate the fitting with the isodesmic polymerization model. The equation for isodesmic polymerization fitting is shown in ((b) inset). 75 μM S100A9, PBS, pH 7.4, and 42 °C.
# ThT dye is known to bind specifically to β-sheet-containing amyloid structures and thus enables quantification of the kinetics of amyloid self-assembly. ThT assay was performed as described previously. First, 75 μM S100A9 was transferred into Nunc 96U black well plates with transparent bottoms and then 20 µM ThT was added to each well. The compounds dissolved in PBS were added to S100A9 solution with molar ratios of 1:1 and 1:10, respectively. Sample volumes were kept at 200 μL per well. The plates were immediately covered, placed into a Tecan F200 PRO plate reader, and incubated at 42 °C with 432 rpm orbital shaking every 10 min. ThT fluorescence was recorded every 10 min. Filters at 430 and 495 nm wavelengths with a 20 nm band width each were used for excitation and emission, respectively. Each sample was incubated in triplicate. ThT fluorescence intensities were normalized.
Structure (SMILES),S100A9 fibril morphology change (AFM) [1],median height of S100A9 fibrils (AFM) [1],ThT fluorescence upon incubation of compound alone (amyloid self-assembly) [2],apparent dissociation constant Kd [3],"k, kinetic rate constant of S100A9 amyloid formation ([4]; S100A9:compound 1:1)",k/kS100A9 ([4]; S100A9:compound 1:1),"k, kinetic rate constant of S100A9 amyloid formation ([4]; S100A9:compound 1:10)",k/kS100A9 ([4]; S100A9:compound 1:10),Kd [3]
N[C@@H](Cc1ccc(O)c(O)c1)C(=O)N[C@@H](CC(=O)O)C(=O)N[C@@H](Cc1c[nH]cn1)C(=O)N[C@@H](Cc1ccc(O)c(O)c1)C(=O)O [DOPA-D-H-DOPA] (H-[Dopa]DH[Dopa]-OH),"tended to clump together, forming large clustered aggregates",3.0–3.2 nm,flat lines close to zero,sub-micromolar range,60000 M⁻¹ s⁻¹,0.91,66000 M⁻¹ s⁻¹,1,–
O=C(CN1CCNCCNCCNCC1)N[C@@H](Cc1ccc(O)c(O)c1)C(=O)O [DOPA-cyclen],–,–,flat lines close to zero,sub-micromolar range,62000 M⁻¹ s⁻¹,0.93,133000 M⁻¹ s⁻¹,–,0.1 ± 0.04 µM
N[C@@H](Cc1ccc(O)c(O)c1)C(=O)N[C@@H](Cc1c[nH]cn1)C(=O)N[C@@H](Cc1c[nH]cn1)C(=O)N[C@@H](Cc1ccc(O)c(O)c1)C(=O)O [DOPA-H-H-DOPA] (H-[Dopa]HH[Dopa]-OH),–,–,flat lines close to zero,sub-micromolar range,77000 M⁻¹ s⁻¹,1.17,134000 M⁻¹ s⁻¹,–,–
O=C(O)CC[C@H](NC(=O)CN1CCNCCNCCNCC1)C(=O)N[C@@H](Cc1c[nH]cn1)C(=O)O [H-E-cyclen],did not lead to thickening of amyloid fibrils,2.0 nm,flat lines close to zero,sub-micromolar range,69000 M⁻¹ s⁻¹,1.05,48000 M⁻¹ s⁻¹,0.72,0.09 ± 0.05 µM
N[C@@H](Cc1ccc(O)c(O)c1)C(=O)N[C@@H](CC(=O)O)C(=O)N[C@@H](Cc1c[nH]cn1)C(=O)O [DOPA-D-H] (H-[Dopa]-Asp-His-OH),"tended to clump together, forming large clustered aggregates",–,flat lines close to zero,sub-micromolar range,63000 M⁻¹ s⁻¹,0.95,45000 M⁻¹ s⁻¹,0.69,0.11 ± 0.04 µM
